Measured values reported in US20250230193A1, “CYCLIC COMPOUND HAVING SELECTIVE KRAS INHIBITORY EFFECT ON HRAS AND NRAS” (CHUGAI SEIYAKU KABUSHIKI KAISHA, priority 2022, published 2025).

Legend:
[1] = target: GDP-bound NRAS wild-type protein (Homo sapiens, UniProt P01111); test: Binding to NRAS by surface plasmon resonance (SPR), Single Cycle Kinetics; conditions: KD ratio NRAS/KRAS, SPR
[2] = target: GDP-bound HRAS wild-type protein (Homo sapiens, UniProt P01112); test: Binding to HRAS by surface plasmon resonance (SPR), Single Cycle Kinetics; conditions: KD ratio HRAS/KRAS, SPR
Chain of GDP-bound HRAS wild-type protein (P01112 whole entry): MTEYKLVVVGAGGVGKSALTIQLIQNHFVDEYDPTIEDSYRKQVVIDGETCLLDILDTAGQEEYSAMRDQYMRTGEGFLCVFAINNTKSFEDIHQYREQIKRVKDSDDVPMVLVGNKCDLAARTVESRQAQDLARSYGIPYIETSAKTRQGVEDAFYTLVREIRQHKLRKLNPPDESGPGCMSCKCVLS

Chain of GDP-bound NRAS wild-type protein (P01111 whole entry): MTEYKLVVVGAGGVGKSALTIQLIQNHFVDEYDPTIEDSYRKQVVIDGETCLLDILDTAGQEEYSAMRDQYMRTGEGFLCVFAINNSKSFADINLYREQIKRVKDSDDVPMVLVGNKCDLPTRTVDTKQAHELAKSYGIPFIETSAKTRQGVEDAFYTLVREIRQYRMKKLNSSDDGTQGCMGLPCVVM

| Structure (SMILES) | NRAS/KRAS (ratio of KD value with respect to GDP-bound NRAS wild-type protein to KD value with respect to KRAS) [1] | HRAS/KRAS (ratio of KD value with respect to GDP-bound HRAS wild-type protein to KD value with respect to KRAS) [2] |
| --- | --- | --- |
| CCO[C@@H]1C[C@H]2C(=O)NC3(CCC3)C(=O)N(C)[C@@H](C3CCCC3)C(=O)N(CCC3CCCC3)[C@H](C(=O)N3CCOCC3)CC(=O)N(C)[C@@H](CC(C)C)C(=O)N[C@@H]([C@@H](C)CC)C(=O)N(C)CC(=O)N(C)[C@H]3CCCCN(C3=O)[C@@H](Cc3ccc(C(F)(F)F)cc3)C(=O)N(C)CC(=O)N[C@@H](CCc3cc(F)c(C(F)(F)F)c(F)c3)C(=O)N2C1 [PP0651] | B (a compound having 3 or more and less than 10 is denoted as B) | B (a compound having 3 or more and less than 10 is denoted as B) |
| CCO[C@@H]1C[C@H]2C(=O)NC3(CCC3)C(=O)N(C)[C@@H](C3CCCC3)C(=O)N(CCc3ccccc3)[C@H](C(=O)N3CCOCC3)CC(=O)N(C)[C@@H](CC(C)C)C(=O)N[C@@H]([C@@H](C)CC)C(=O)N(C)CC(=O)N(C)[C@H]3CCCCN(C3=O)[C@@H](Cc3ccc(C(F)(F)F)cc3)C(=O)N(C)CC(=O)N[C@@H](CCc3cc(F)c(C(F)(F)F)c(F)c3)C(=O)N2C1 [PP0652] | B (a compound having 3 or more and less than 10 is denoted as B) | B (a compound having 3 or more and less than 10 is denoted as B) |
| CC[C@H](C)[C@@H]1NC(=O)[C@H](CC)N(C)C(=O)C[C@@H](C(=O)N(C)C)N(C)C(=O)[C@H](C2CCCC2)N(C)C(=O)C2(CCC2)NC(=O)[C@@H]2CCN2C(=O)[C@H](CCc2cc(F)c(C(F)(F)F)c(F)c2)NC(=O)CN(C)C(=O)[C@H](Cc2ccc(C(F)(F)F)cc2)N2CCCCC[C@@H](C2=O)N(C)C(=O)CN(C)C1=O [PP0654] | B (a compound having 3 or more and less than 10 is denoted as B) | B (a compound having 3 or more and less than 10 is denoted as B) |
| CC[C@H](C)[C@@H]1NC(=O)[C@H](CC)N(C)C(=O)C[C@@H](C(=O)N(C)C)N(C)C(=O)[C@H](C2CCCC2)N(C)C(=O)C2(CCC2)NC(=O)[C@@H]2CCCCN2C(=O)[C@H](CCc2cc(F)c(C(F)(F)F)c(F)c2)NC(=O)CN(C)C(=O)[C@H](Cc2ccc(C(F)(F)F)cc2)N2CCCCC[C@@H](C2=O)N(C)C(=O)CN(C)C1=O [PP0655] | B (a compound having 3 or more and less than 10 is denoted as B) | B (a compound having 3 or more and less than 10 is denoted as B) |
| CC[C@H](C)[C@@H]1NC(=O)[C@H](CC)N(C)C(=O)C[C@@H](C(=O)N(C)C)N(C)C(=O)[C@H](C2CCCC2)N(C)C(=O)C2(CCC2)NC(=O)[C@@H]2C[C@@H](N3CCC(F)(F)CC3)CN2C(=O)[C@H](CCc2cc(F)c(C(F)(F)F)c(F)c2)NC(=O)CN(C)C(=O)[C@H](Cc2ccc(C(F)(F)F)cc2)N2CCCC[C@@H](C2=O)N(C)C(=O)CN(C)C1=O [PP0656] | C (A compound having a KD ratio of 0.1 or more and less than 3 is denoted as C) | C (A compound having a KD ratio of 0.1 or more and less than 3 is denoted as C) |
| CC[C@H](C)[C@@H]1NC(=O)[C@H](CC)N(C)C(=O)C[C@@H](C(=O)N(C)C)N(C)C(=O)[C@H](C2CCCC2)N(C)C(=O)C2(CCC2)NC(=O)[C@@H]2CCN2C(=O)[C@H](CCc2cc(F)c(C(F)(F)F)c(F)c2)NC(=O)CN(C)C(=O)[C@H](Cc2ccc(C(F)(F)F)cc2)N2CCCC[C@@H](C2=O)N(C)C(=O)CN(C)C1=O [PP0657] | B (a compound having 3 or more and less than 10 is denoted as B) | B (a compound having 3 or more and less than 10 is denoted as B) |
| CC[C@H](C)[C@@H]1NC(=O)[C@H](CC)N(C)C(=O)C[C@@H](C(=O)N(C)C)N(C)C(=O)[C@H](C2CCCC2)N(C)C(=O)C2(CCC2)NC(=O)[C@@H]2CCCCN2C(=O)[C@H](CCc2cc(F)c(C(F)(F)F)c(F)c2)NC(=O)CN(C)C(=O)[C@H](Cc2ccc(C(F)(F)F)cc2)N2CCCC[C@@H](C2=O)N(C)C(=O)CN(C)C1=O [PP0658] | C (A compound having a KD ratio of 0.1 or more and less than 3 is denoted as C) | B (a compound having 3 or more and less than 10 is denoted as B) |
| CC[C@H](C)[C@@H]1NC(=O)[C@H](CC)N(C)C(=O)C[C@@H](C(=O)N(C)C)N(CC)C(=O)[C@H](C2CCCC2)N(C)C(=O)C2(CCC2)NC(=O)[C@@H]2C[C@H](N3CCC(F)(F)CC3)CN2C(=O)[C@H](CCc2cc(F)c(C(F)(F)F)c(F)c2)NC(=O)CN(C)C(=O)[C@H](Cc2ccc(C(F)(F)F)cc2)N2CCCC[C@@H](C2=O)N(C)C(=O)CN(C)C1=O [PP0659] | B (a compound having 3 or more and less than 10 is denoted as B) | B (a compound having 3 or more and less than 10 is denoted as B) |
| CC[C@H](C)[C@@H]1NC(=O)[C@H](CC)N(C)C(=O)C[C@@H](C(=O)N(C)C)N(CC)C(=O)[C@H](C2CCCC2)N(C)C(=O)C2(CCC2)NC(=O)[C@@H]2CCN2C(=O)[C@H](CCc2cc(F)c(C(F)(F)F)c(F)c2)NC(=O)CN(C)C(=O)[C@H](Cc2ccc(C(F)(F)F)cc2)N2CCCC[C@@H](C2=O)N(C)C(=O)CN(C)C1=O [PP0660] | B (a compound having 3 or more and less than 10 is denoted as B) | B (a compound having 3 or more and less than 10 is denoted as B) |
| CC[C@H](C)[C@@H]1NC(=O)[C@H](CC)N(C)C(=O)C[C@@H](C(=O)N(C)C)N(CC)C(=O)[C@H](C2CCCC2)N(C)C(=O)C2(CCC2)NC(=O)[C@@H]2CCCCN2C(=O)[C@H](CCc2cc(F)c(C(F)(F)F)c(F)c2)NC(=O)CN(C)C(=O)[C@H](Cc2ccc(C(F)(F)F)cc2)N2CCCC[C@@H](C2=O)N(C)C(=O)CN(C)C1=O [PP0661] | C (A compound having a KD ratio of 0.1 or more and less than 3 is denoted as C) | B (a compound having 3 or more and less than 10 is denoted as B) |
| CC[C@H](C)[C@@H]1NC(=O)[C@H](CC(C)C)N(C)C(=O)C[C@@H](C(=O)N2CCOCC2)N(C)C(=O)[C@H](C2CCCC2)N(C)C(=O)C2(CCCC2)NC(=O)[C@@H]2[C@@H](O)CCN2C(=O)[C@H](CCc2cc(F)c(C(F)(F)F)c(F)c2)NC(=O)CN(C)C(=O)[C@H](Cc2ccc(C(F)(F)F)cc2)N2CCCCC[C@@H](C2=O)N(C)C(=O)CN(C)C1=O [PP0662] | B (a compound having 3 or more and less than 10 is denoted as B) | B (a compound having 3 or more and less than 10 is denoted as B) |
| CCO[C@@H]1C[C@H]2C(=O)NC3(CCC3)C(=O)N(C)[C@@H](C3CCCC3)C(=O)N(C)[C@H](C(=O)N(C)C)CC(=O)N(C)[C@@H](CC)C(=O)N[C@@H]([C@@H](C)CC)C(=O)N(C)CC(=O)N(C)[C@H]3CCCCCN(C3=O)[C@@H](Cc3ccc(C(F)(F)F)cc3)C(=O)N(C)CC(=O)N[C@@H](CCc3cc(F)c(C(F)(F)F)c(F)c3)C(=O)N2C1 [PP0663] | B (a compound having 3 or more and less than 10 is denoted as B) | B (a compound having 3 or more and less than 10 is denoted as B) |
| C=CC[C@H]1C(=O)N[C@@H]([C@@H](C)CC)C(=O)N(C)CC(=O)N(C)[C@H]2CCCCCN(C2=O)[C@@H](Cc2ccc(C(F)(F)F)cc2)C(=O)N(C)CC(=O)N[C@@H](CCc2cc(F)c(C(F)(F)F)c(F)c2)C(=O)N2C[C@H](OCC)C[C@H]2C(=O)NC2(CCC2)C(=O)N(C)[C@@H](C2CCCC2)C(=O)N(C)[C@H](C(=O)N(C)C)CC(=O)N1C [PP0665] | B (a compound having 3 or more and less than 10 is denoted as B) | B (a compound having 3 or more and less than 10 is denoted as B) |
| C#CC[C@H]1C(=O)N[C@@H]([C@@H](C)CC)C(=O)N(C)CC(=O)N(C)[C@H]2CCCCCN(C2=O)[C@@H](Cc2ccc(C(F)(F)F)cc2)C(=O)N(C)CC(=O)N[C@@H](CCc2cc(F)c(C(F)(F)F)c(F)c2)C(=O)N2C[C@H](OCC)C[C@H]2C(=O)NC2(CCC2)C(=O)N(C)[C@@H](C2CCCC2)C(=O)N(C)[C@H](C(=O)N(C)C)CC(=O)N1C [PP0666] | B (a compound having 3 or more and less than 10 is denoted as B) | B (a compound having 3 or more and less than 10 is denoted as B) |
| CCO[C@@H]1C[C@H]2C(=O)NC3(CCC3)C(=O)N(C)[C@@H](C3CCCC3)C(=O)N(C)[C@H](C(=O)N(C)C)CC(=O)N(C)[C@@H](CC3CC3)C(=O)N[C@@H]([C@@H](C)CC)C(=O)N(C)CC(=O)N(C)[C@H]3CCCCCN(C3=O)[C@@H](Cc3ccc(C(F)(F)F)cc3)C(=O)N(C)CC(=O)N[C@@H](CCc3cc(F)c(C(F)(F)F)c(F)c3)C(=O)N2C1 [PP0667] | B (a compound having 3 or more and less than 10 is denoted as B) | B (a compound having 3 or more and less than 10 is denoted as B) |
| CCO[C@@H]1C[C@H]2C(=O)NC3(CCC3)C(=O)N(C)[C@@H](C3CCCC3)C(=O)N(C)[C@H](C(=O)N(C)C)CC(=O)N(C)[C@@H](CC3CCC3)C(=O)N[C@@H]([C@@H](C)CC)C(=O)N(C)CC(=O)N(C)[C@H]3CCCCCN(C3=O)[C@@H](Cc3ccc(C(F)(F)F)cc3)C(=O)N(C)CC(=O)N[C@@H](CCc3cc(F)c(C(F)(F)F)c(F)c3)C(=O)N2C1 [PP0668] | B (a compound having 3 or more and less than 10 is denoted as B) | B (a compound having 3 or more and less than 10 is denoted as B) |
